Target: T1, Human M4 (Homo sapiens, UniProt P08173)
T1 sequence (P08173 1-479): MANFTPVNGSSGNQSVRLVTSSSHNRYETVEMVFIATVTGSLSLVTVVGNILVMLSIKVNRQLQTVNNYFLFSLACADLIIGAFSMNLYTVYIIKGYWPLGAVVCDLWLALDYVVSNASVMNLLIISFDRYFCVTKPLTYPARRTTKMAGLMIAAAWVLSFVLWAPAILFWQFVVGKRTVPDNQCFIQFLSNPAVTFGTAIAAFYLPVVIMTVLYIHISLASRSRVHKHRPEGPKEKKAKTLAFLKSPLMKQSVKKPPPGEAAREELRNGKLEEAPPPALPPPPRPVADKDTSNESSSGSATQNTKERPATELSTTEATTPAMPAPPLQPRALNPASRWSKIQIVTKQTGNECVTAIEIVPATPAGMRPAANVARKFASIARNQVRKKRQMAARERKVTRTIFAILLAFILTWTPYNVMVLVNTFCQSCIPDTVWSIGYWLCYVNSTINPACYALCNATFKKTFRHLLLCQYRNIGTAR
Test: M4 cell-based functional assay (calcium mobilization)
Set-up: expressed in transfected cells
Details: for Emax at 30 µM: % ACh maximum at 30 μM; for EC50: CHO-K1 hM4-Gqi5 cells, calcium flux, increase in EC20 acetylcholine response
Procedure: Human (h) and rat (r) M4 CDNAs, along with the chimeric G protein Gqi5, were transfected into Chinese hamster ovary (CHO-K1) cells purchased from the American Type Culture Collection using Lipofectamine2000. The transfected cells were subjected to selection antibiotic treatment to generate stable cell lines; G418 sulfate (1 mg/ml) for selecting M4 expressing cells and Hygromycin B (500 μg/mL) for selecting Gqi5 expressing cells. The resulting polyclones were further screened to obtain monoclones of hM4-Gqi5 and rM4-Gqi5 for compound screening assay. Stable monoclone cells were maintained in Ham's F-12 medium containing 10% heat-inactivated fetal bovine serum (FBS), 1× Antibiotic/Antimycotic, 20 mM HEPES, 500 μg/mL G418 sulfate, and 200 μg/mL Hygromycin B in 37° C. humidified incubators in the presence of 5% CO2.
The high throughput assay was employed to measure receptor-induced mobilization of intracellular calcium to determine compound activity. Test compound was added to cells expressing the muscarinic receptors that were loaded with calcium sensitive fluorescent dye. After a ˜2.5 minute incubation period, a submaximal (EC20) concentration of acetylcholine was added, and the response measured. This kinetic assay allows for simultaneous screening and potency determination of multiple pharmacological modes of action including agonist and potentiator activity. CHO-K1 cells stably expressing muscarinic receptors were plated in growth medium lacking G418 and hygromycin at 15,000 cells/20 μL/well in Greiner 384-well black-walled, tissue culture (TC)-treated, clear-bottom plates (Greiner Bio-One). Cells were incubated overnight at 37° C. and 5% CO2. The next day, calcium assay buffer (Hank's balanced salt solution (HBSS), 20 mM HEPES, 2.5 mM Probenecid, 4.16 mM sodium bicarbonate (Sigma-Aldrich, St. Louis, MO)) was prepared to dilute compounds, agonists, and Fluo-4-acetomethoxyester (Fluo-4-AM), fluorescent calcium indicator dye. Compounds were serially diluted 1:3 into 10 point concentration response curves in DMSO using the Bravo Liquid Handler (Agilent, Santa Clara, CA), transferred to a 384 well daughter plates using an Echo acoustic liquid handler (Beckman Coulter, Indianapolis, Indiana), and diluted in assay Buffer to a 2× final concentration. The agonist plates were prepared using acetylcholine (ACh, Sigma-Aldrich, St. Louis, MO) concentrations for the EC20 and ECMAX responses by diluting in assay buffer to a 5× final concentration. The 2× dye solution (2.3 μM) was prepared by mixing a 2.3 mM Fluo-4-AM stock in DMSO with 10% (w/v) pluronic acid F-127 in a 1:1 ratio in assay buffer. Using a microplate washer (BioTek, Winooski, VT), cells were washed with assay buffer for 3 times to remove medium. After the final wash, 20 μL of assay buffer remained in the cell plates. Immediately, 20 μL of the 2× dye solution (final 1.15 μM) was added to each well of the cell plate using a Multidrop Combi dispenser (Thermo Fisher, Waltham, MA). After cells were incubated with the dye solutions for 45 min at 37° C. in the presence of 5% CO2, the dye solutions were removed and replaced with assay buffer using a microplate washer, leaving 20 μL of assay buffer in the cell plate.
The prepared compound, agonist, and cell plates were placed inside the Functional Drug Screening System uCell (FDSS uCell, Hamamatsu, Japan) to measure the calcium flux.
The triple add protocol was used to measure Ca kinetics; Compound, ACh for EC2O, and ACh for EC80 adds in an order. Briefly, after establishment of a fluorescence baseline for 2 seconds (excitation, 480 nm; emission, 530 nm), first add occurred by adding 20 μL of test compound to the cells, and the response was measured for 140 seconds. This is followed by second add; 10 μL (5×) of an EC20 concentration of ACh agonist was added to the cells, and the response of the cells was measured for 125 seconds. […]

Structure (SMILES): Cc1c(N2CCc3nc(C4(F)CC4)sc3C2)nc2n[nH]c(=O)n2c1C [Compound 69, 7-(2-(1-fluorocyclopropyl)-6,7-dihydrothiazolo[5,4-c]pyridin-5(4H)-yl)-5,6-dimethyl-[1,2,4]triazolo[4,3-a]pyrimidin-3(2H)-one]
- Emax at 30 µM: 88%
- EC50: 18 nM

Structure (SMILES): Cc1cc2nc(=O)cc(C(F)(F)F)n2nc1N1CCc2nc(Br)sc2C1 [Compound 49, 7-(2-bromo-6,7-dihydrothiazolo[5,4-c]pyridin-5(4H)-yl)-8-methyl-4-(trifluoromethyl)-2H-pyrimido[1,2-b]pyridazin-2-one]
- Emax at 30 µM: 76%
- EC50: 386 nM

Structure (SMILES): Cc1cc2nccnc2nc1N1CCc2nc(N)sc2C1 [Compound 60, 5-(7-methylpyrido[2,3-b]pyrazin-6-yl)-4,5,6,7-tetrahydrothiazolo[5,4-c]pyridin-2-amine]
- Emax at 30 µM: 67%
- EC50: > 10000 nM

Structure (SMILES): Cc1c(N2CCc3nc(C4(F)CC4)sc3C2)nc2nn(CC3CC3)c(=O)n2c1C [Compound 78, 2-(cyclopropylmethyl)-7-(2-(1-fluorocyclopropyl)-6,7-dihydrothiazolo[5,4-c]pyridin-5(4H)-yl)-5,6-dimethyl-[1,2,4]triazolo[4,3-a]pyrimidin-3(2H)-one]
- Emax at 30 µM: 109%
- EC50: 18 nM

Structure (SMILES): Cc1nc2c(s1)CN(c1nc3nccnc3cc1C)CC2 [Compound 57, 2-methyl-5-(7-methylpyrido[2,3-b]pyrazin-6-yl)-4,5,6,7-tetrahydrothiazolo[5,4-c]pyridine]
- Emax at 30 µM: 90%
- EC50: 666 nM

Structure (SMILES): Cc1c(C#N)nnc(N2CCc3nc(Nc4cccc(F)c4)sc3C2)c1C [Compound 6, 6-(2-((3-fluorophenyl)amino)-6,7-dihydrothiazolo[5,4-c]pyridin-5(4H)-yl)-4,5-dimethylpyridazine-3-carbonitrile]
- Emax at 30 µM: 41%
- EC50: > 10000 nM

Structure (SMILES): Cc1cc2nc(C(=O)NC3(C#N)CC3)cc(=O)n2nc1N1CCc2nc(Br)sc2C1 [Compound 46, 7-(2-bromo-6,7-dihydrothiazolo[5,4-c]pyridin-5(4H)-yl)-N-(1-cyanocyclopropyl)-8-methyl-4-oxo-4H-pyrimido[1,2-b]pyridazine-2-carboxamide]
- Emax at 30 µM: 91%
- EC50: 360 nM

Structure (SMILES): Cc1nc(N2CCc3nc(Br)sc3C2)c2cc(F)ccc2n1 [Compound 33, 2-bromo-5-(6-fluoro-2-methylquinazolin-4-yl)-4,5,6,7-tetrahydrothiazolo[5,4-c]pyridine]
- Emax at 30 µM: 99%
- EC50: 79 nM

Structure (SMILES): Cc1nc(Cl)c(C)c(N2CCc3nc(C)sc3C2)n1 [Compound 9, 5-(6-chloro-2,5-dimethylpyrimidin-4-yl)-2-methyl-4,5,6,7-tetrahydrothiazolo[5,4-c]pyridine]
- Emax at 30 µM: 98%
- EC50: 660 nM

Structure (SMILES): Cc1cc2nc(C(F)(F)F)cc(=O)n2nc1N1CCc2nc(Br)sc2C1 [Compound 36, 7-(2-bromo-6,7-dihydrothiazolo[5,4-c]pyridin-5(4H)-yl)-8-methyl-2-(trifluoromethyl)-4H-pyrimido[1,2-b]pyridazin-4-one]
- Emax at 30 µM: 91%
- EC50: 37 nM

Structure (SMILES): COC1CN(C(=O)c2cc(=O)n3nc(N4CCc5nc(Br)sc5C4)c(C)cc3n2)C1 [Compound 44, 7-(2-bromo-6,7-dihydrothiazolo[5,4-c]pyridin-5(4H)-yl)-2-(3-methoxyazetidine-1-carbonyl)-8-methyl-4H-pyrimido[1,2-b]pyridazin-4-one]
- Emax at 30 µM: 93%
- EC50: 2390 nM

Structure (SMILES): Cc1c(N2CCc3nc(C4CC4)sc3C2)nc2nn(CC3(C#N)CC3)c(=O)n2c1C [Compound 73, 1-((7-(2-cyclopropyl-6,7-dihydrothiazolo[5,4-c]pyridin-5(4H)-yl)-5,6-dimethyl-3-oxo-[1,2,4]triazolo[4,3-a]pyrimidin-2(3H)-yl)methyl)cyclopropane-1-carbonitrile]
- Emax at 30 µM: 91%
- EC50: 12 nM

Structure (SMILES): Cc1cc2nccnc2nc1N1CCc2ncsc2C1 [Compound 53, 5-(7-methylpyrido[2,3-b]pyrazin-6-yl)-4,5,6,7-tetrahydrothiazolo[5,4-c]pyridine]
- Emax at 30 µM: 82%
- EC50: 2790 nM

Structure (SMILES): Cc1cc2nccnc2nc1N1CCc2nc(-c3cccs3)sc2C1 [Compound 56, 5-(7-methylpyrido[2,3-b]pyrazin-6-yl)-2-(thiophen-2-yl)-4,5,6,7-tetrahydrothiazolo[5,4-c]pyridine]
- Emax at 30 µM: 50%
- EC50: 2390 nM

Structure (SMILES): Cc1cc2nccnc2nc1N1CCc2nc(-c3ccnn3C)sc2C1 [Compound 59, 2-(1-methyl-1H-pyrazol-5-yl)-5-(7-methylpyrido[2,3-b]pyrazin-6-yl)-4,5,6,7-tetrahydrothiazolo[5,4-c]pyridine]
- Emax at 30 µM: 54%
- EC50: 2780 nM

Structure (SMILES): CCOC(=O)c1nc2c(s1)CN(c1nc3nccnc3cc1C)CC2 [Compound 58, ethyl 5-(7-methylpyrido[2,3-b]pyrazin-6-yl)-4,5,6,7-tetrahydrothiazolo[5,4-c]pyridine-2-carboxylate]
- Emax at 30 µM: 86%
- EC50: 1840 nM

Structure (SMILES): Cc1cc(C#N)nnc1N1CCc2nc(Br)sc2C1 [Compound 19, 6-(2-bromo-6,7-dihydrothiazolo[5,4-c]pyridin-5(4H)-yl)-5-methylpyridazine-3-carbonitrile]
- Emax at 30 µM: 99%
- EC50: 851 nM

Structure (SMILES): COc1nc2c(s1)CN(c1nnc(C#N)c(C)c1C)CC2 [Compound 8, 6-(2-methoxy-6,7-dihydrothiazolo[5,4-c]pyridin-5(4H)-yl)-4,5-dimethylpyridazine-3-carbonitrile]
- Emax at 30 µM: 79%
- EC50: 732 nM

Structure (SMILES): Cc1nc(Cl)c(C)c(N2CCc3nc(Br)sc3C2)n1 [Compound 11, 2-bromo-5-(6-chloro-2,5-dimethylpyrimidin-4-yl)-4,5,6,7-tetrahydrothiazolo[5,4-c]pyridine]
- Emax at 30 µM: 85%
- EC50: 103 nM

Structure (SMILES): Cc1cc(C#N)cnc1N1CCc2nc(Br)sc2C1 [Compound 1, 6-(2-bromo-6,7-dihydrothiazolo[5,4-c]pyridin-5(4H)-yl)-5-methylnicotinonitrile]
- Emax at 30 µM: 92%
- EC50: 59 nM

Structure (SMILES): Cc1c(C#N)nnc(N2CCc3nc(Nc4ccc(F)cc4)sc3C2)c1C [Compound 7, 6-(2-((4-fluorophenyl)amino)-6,7-dihydrothiazolo[5,4-c]pyridin-5(4H)-yl)-4,5-dimethylpyridazine-3-carbonitrile]
- Emax at 30 µM: 49%
- EC50: 1290 nM

Structure (SMILES): COc1ccc2ncnc(N3CCc4nc(Br)sc4C3)c2c1 [Compound 31, 2-bromo-5-(6-methoxyquinazolin-4-yl)-4,5,6,7-tetrahydrothiazolo[5,4-c]pyridine]
- Emax at 30 µM: 68%
- EC50: 566 nM

Structure (SMILES): Cc1nc(N2CCc3nc(Br)sc3C2)c2cc(Cl)ccc2n1 [Compound 32, 2-bromo-5-(6-chloro-2-methylquinazolin-4-yl)-4,5,6,7-tetrahydrothiazolo[5,4-c]pyridine]
- Emax at 30 µM: 91%
- EC50: 200 nM

Reference: patent publication US12139498B1, “Positive allosteric modulators of the muscarinic acetylcholine receptor M4” (Vanderbilt University, priority 2023, dated 2024)
